According to patent US9688637B2, “3-amidobenzamides and uses thereof for increasing cellular levels of A3G and other A3 family members” (Northwestern University, priority 2014, dated 2017):

How the values were obtained:
A3G = A3G (Homo sapiens, UniProt Q9HC16); details: described by others (ref. 39); cited from earlier work
293T cells = test: Cellular cytotoxicity by counting cells after 48 hrs with compound vs DMSO; type: cell-based
Method: To screen compounds that can boost A3G levels, 293T cells (25,000 cells per well in 96-well plate) stably expressing A3G-Luc protein or A3G-Luc/Vif proteins were plated. After 24 hrs post plating culture medium was replaced with 100 μl of new medium containing either DMSO as a control or various compounds (10 μM concentration). After 48 hrs of incubation with compounds culture medium was removed from each well and replaced with 100 μl of Britelite Plus luciferase assay substrate (PerkinElmer). Following 5 min. of incubation at room temperature, 75 μl of each cell lysate was transferred to a 96-well OptiPlate 96 (PerkinElmer) and luminescence was measured in a VICTOR X2 Multilabel Reader (PerkinElmer). Relative activity of compounds for their boosting capability A3G-Luc activity was calculated by plotting DMSO-treated A3G-Luc or A3G-Luc/Vif cells as 100%. Cellular cytotoxicity was measured by counting number of cells after 48 hrs of incubation with compounds compared to DMSO treated cells.

A3G, sequence (Q9HC16 whole entry): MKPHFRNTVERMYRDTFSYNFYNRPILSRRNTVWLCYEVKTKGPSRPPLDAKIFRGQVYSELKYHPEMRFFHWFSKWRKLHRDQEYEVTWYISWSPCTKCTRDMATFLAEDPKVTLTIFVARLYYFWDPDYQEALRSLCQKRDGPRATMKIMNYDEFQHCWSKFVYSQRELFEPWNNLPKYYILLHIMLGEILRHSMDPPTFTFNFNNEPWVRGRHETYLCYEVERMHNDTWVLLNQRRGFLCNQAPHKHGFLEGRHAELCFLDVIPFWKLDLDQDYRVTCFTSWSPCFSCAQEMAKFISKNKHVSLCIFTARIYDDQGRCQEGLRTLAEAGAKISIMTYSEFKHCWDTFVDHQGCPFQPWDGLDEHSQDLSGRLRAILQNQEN

COc1ccc(C(=O)Nc2cc(OC)c(OC)c(OC)c2)cc1NC(=O)C(C)Br (centres unmarked) [IMB-26, reference compound]
binding to A3G and degradation of A3G by Vif (A3G): directly bind to A3G and prevent its degradation by Vif | toxicity to 293T cells (293T cells): toxic
